# *1 amine or outer side, *2 acyl side, *3 side chain or, on linkers, in order; H or OH if unused. Where a SMILES comes first, the peptide text is derived from it. Side-chain parts run from the residue outwards. [ ]: non-standard residue; d: D form. The star is where a group is joined. γGlu = O=C(O)[C@H](CCC(=O)[*:2])N[*:1]; Palmitoyl = CCCCCCCCCCCCCCCC(=O)*; Aib = CC(C)(N)C(=O)O
# Assays:
# Type in all cases: cell-based
# [1] = biological target: T1, human glucagon-like peptide 1 receptor (GLP-1R) (Homo sapiens, UniProt P43220); test: GLP-1 receptor efficacy assay (cAMP AlphaScreen, CHO cells); details: Table 1B; for Ratio GLP-1/Glucagon: EC50 [GLP-1R]/EC50 [Glucagon-R]; for EC50: same protocol, different laboratory, read-out: EC50 hGLP-1R CHO-K1
# T1 construct: expressed in transfected cells
# Description: (§1) The cDNA encoding either the human glucagon receptor (Glucagon-R) (primary accession number P47871) or the human glucagon-like peptide 1 receptor (GLP-1R) (primary accession number P43220) were synthesized and cloned into a mammalian expression vector containing a Zeocin resistance marker.
# (§2) The mammalian expression vectors encoding the Glucagon-R or the GLP-1-R were transfected into Chinese hamster ovary (CHO) cells by the Attractene method method. Stably expressing clones were obtained by Zeocin selection (250 μg/mL) upon limited dilution of cells resistant to the selection pressure. Glucagon-R and GLP-1-R cell clones expressing were picked, propagated and tested in the Glucagon-R and GLP-1-R efficacy assays as described below. One Glucagon-R expressing clone and one GLP-1-R expressing clone were chosen for compound profiling.
# (§3) CHO cells expressing the human Glucagon-R, or human GLP-1-R were seeded 24 hours prior to the assay at 30,000 cells per well in 96-well microtiter plates in culture in 100 μl growth medium. On the day of analysis, growth medium was removed and the cells were washed once with 200 μl of assay buffer (Krebs-Ringer-buffer—KRBH). The buffer was removed and the cells were incubated for 15 min at room temperature in 10 μl KRBH (KRBH+10 mM HEPES, 5 mM NaHCO3, 0.1% (V/V) BSA) with 0.1 mM IBMX in deionized water containing increasing concentrations of test peptides. The reaction was stopped by the addition of lysis buffer (0.1% w/v BSA, 5 mM HEPES, 0.3% v/v Tween-20). After cell lysis for 10 min at room temperature, lysates were transferred to 384-well plates and 10 μl of acceptor/donorbead mixture as contained in the AlphaScreen™ cAMP Functional Assay Kit was added. After one hour of incubation at room temperature in the dark, the cAMP content was determined applying the AlphaScreen™ cAMP Functional Assay Kit from Perkin-Elmer according to manufacturer instructions. EC50 and relative efficacies compared to reference compounds (glucagon and GLP-1) were calculated applying computer aided curve fitting. The GLP-1/glucagon ratio is calculated as defined earlier.
# [2] = biological target: T2, endogenous glucagon receptor (Rattus norvegicus, UniProt P30082); test: Agonistic activity on endogenous glucagon receptor (glycogen synthesis rate in primary rat hepatocytes); details: inhibition of glycogen synthesis rate, 3 hours, read-out: EC50 GLP-1R Rat hepat.
# T2 construct: Agonistic activity of the test compounds on endogenous glucagon receptor; endogenous in cells; host or cells: primary rat hepatocytes
# Protocol: Agonistic activity of the test compounds on endogenous glucagon receptor was determined by measuring their effect on rate of glycogen synthesis in primary rat hepatocytes. Upon activation of the glucagon receptor, an inhibition of the glycogen synthesis rate is expected. Rate of glycogen synthesis was determined by counting the amount of radioactively labeled glucose incorporated into the cellular glycogen stores in a defined period of time.
# Primary rat hepatocytes were cultured at a density of 40,000 cells/well in a 24-well plate for 24 hours at 37° C. and 5% CO2.
# Medium was discarded and the cells washed with PBS. 180 μL of KRBH-based buffer containing 0.1% BSA and glucose at a concentration of 22.5 mM was then added to the wells, followed by test compound and 40 μCi/ml D-[U14C] glucose (20 μL each). Incubation was continued for 3 hours.
# At the end of the incubation period, the incubation buffer was aspirated and cells washed once with ice-cold PBS before lysis by incubation for 30 min at room temperature with 100 μL 1 mol/l NaOH.
# Cell lysates were transferred to 96-well filter plates and glycogen precipitated by incubating the filter-plates for 120 min at 4° C. followed by washing the filter plates 4 times with ice-cold ethanol (70%). The resulting precipitates were filtered to dryness and the amount of incorporated ^14C-glucose determined by using a Topcount scintillation counter according to manufacturer's recommendations.
# Wells with vehicle controls (0.1% (v/v) DMSO in KRBH buffer) were included as reference for non-inhibited glycogen synthesis (100% CTL). Wells without added D-[U^14C] glucose were included as controls for non-specific background signal (subtracted from all values). Endogenous glucagon peptide was used as a positive control.
# All treatments were performed at least in triplicates.
# Parameters calculated to describe the both the potency as well as the agonistic activity of each test compound on the endogenous glucagon receptor are pEC50 and % CTL. % CTL is determined by calculating the percentage of CPM/well in the presence of the test compound compared to the CPM/well of the vehicle control after subtracting the background CPM/well: [CPM/well(basal)−CPM/well(sample)]*100/[CPM/well(basal)−CPM/well(control)]
# An activator of the glucagon receptor will result in an inhibition of the glycogen synthesis rate and will give % CTL values between 0% CTL (complete inhibition) and 100% CTL (no observable inhibition).
# The resulting activity curves were plotted as absolute counts (unit: cpm/sample) over log (test compound concentration) and analyzed using the curve fitting program XLfit.
# pEC50 (negative logarithmic value of EC50) reflects the potency of the test compound.
# The terms EC50 and pEC50 quoted in relation to GLP-1R activation could equally be regarded as IC50 and pIC50 in relation to glycogen synthesis.
# [3] = biological target: T3, endogenous GLP-1 receptors (Mus musculus, UniProt O35659); test: Agonistic activity on endogenous GLP-1 receptor (cAMP, murine insulinoma cell line); details: intracellular cAMP, 15 minutes at 26° C.; read-out: EC50 GLP-1R (murine insulinoma cells)
# T3 construct: Agonistic activity of the test compounds on endogenous GLP-1 receptors; endogenous in cells
# T3 sequence (O35659 22-463): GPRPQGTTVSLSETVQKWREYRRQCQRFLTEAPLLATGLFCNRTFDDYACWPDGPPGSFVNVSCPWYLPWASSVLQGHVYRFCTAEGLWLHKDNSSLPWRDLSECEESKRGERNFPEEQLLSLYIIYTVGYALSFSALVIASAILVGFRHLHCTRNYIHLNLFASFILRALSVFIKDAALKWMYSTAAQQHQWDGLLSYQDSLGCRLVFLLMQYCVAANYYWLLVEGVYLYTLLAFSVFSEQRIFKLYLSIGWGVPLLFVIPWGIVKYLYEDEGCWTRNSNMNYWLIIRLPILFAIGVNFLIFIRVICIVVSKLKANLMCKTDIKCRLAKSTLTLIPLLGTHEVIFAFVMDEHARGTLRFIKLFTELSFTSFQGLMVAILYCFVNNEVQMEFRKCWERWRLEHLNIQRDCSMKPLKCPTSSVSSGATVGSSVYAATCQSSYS
# Protocol: Agonistic activity of the test compounds on endogenous GLP-1 receptors was determined using a murine insulinoma cell line. Intracellular cAMP was used an indicator of receptor activation.
# Cells were cultured for 24 h at a density of 10,000 cells/well in a 384-well plate. Medium was removed and 10 μL KRBH buffer (NaCl 130 mM, KCl 3.6 mM, NaH2PO4 0.5 mM, MgSO4 0.5 mM, CaCl2) 1.5 mM) containing test compound or GLP-1 (at increasing concentrations from […] to 100 nM) or solvent control (0.1% (v/v) DMSO) was added to the wells for 15 minutes at a temperature of 26° C.
# The cellular cAMP content is measured using the AlphaScreen cAMP Functional Assay Kit (Perkin Elmer). Measurement was performed using the Envision (PerkinElmer) according to manufacturer's recommendations.
# All measurements were performed in quadruplicate.
# Results were converted into cAMP concentrations using a cAMP standard curve prepared in KRBH buffer containing 0.1% (v/v) DMSO. The resulting cAMP curves were plotted as absolute cAMP concentrations (nM) over log (test compound concentration) and analyzed using the curve fitting program XLfit.
# Parameters calculated to describe the both the potency as well as the agonistic activity of each test compound on the endogenous GLP-1 receptors were:
# pEC50 (negative logarithmic value of EC50, a concentration resulting in a half-maximal elevation of cAMP levels, reflecting the potency of the test compound);
# Percent control (% CTL)(% cAMP elevation for each test compound concentration normalized based on the GLP-1-induced maximum cAMP response (100% CTL)).
# [4] = biological target: T4, human glucagon receptor (Glucagon-R) (Homo sapiens, UniProt P47871); test: Glucagon receptor efficacy assay (cAMP AlphaScreen, CHO cells); details: Table 1B; same protocol, different laboratory; read-out: EC50 hGCGR CHO-K1
# T4 construct: expressed in transfected cells
# Description: as §1, §2, §3
# T2 sequence (P30082 27-485): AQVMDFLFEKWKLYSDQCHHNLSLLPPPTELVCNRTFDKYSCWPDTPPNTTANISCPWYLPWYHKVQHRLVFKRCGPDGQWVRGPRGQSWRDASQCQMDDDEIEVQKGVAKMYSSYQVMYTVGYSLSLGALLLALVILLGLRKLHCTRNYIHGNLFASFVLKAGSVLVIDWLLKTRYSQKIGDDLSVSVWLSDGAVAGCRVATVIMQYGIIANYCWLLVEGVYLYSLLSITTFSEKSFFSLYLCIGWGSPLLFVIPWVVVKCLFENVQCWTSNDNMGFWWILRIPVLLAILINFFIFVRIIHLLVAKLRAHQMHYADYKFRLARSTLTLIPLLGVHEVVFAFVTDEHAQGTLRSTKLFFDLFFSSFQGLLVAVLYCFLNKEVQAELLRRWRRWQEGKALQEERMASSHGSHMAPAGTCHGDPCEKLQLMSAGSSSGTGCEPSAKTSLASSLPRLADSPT
# T1 sequence (P43220 24-463): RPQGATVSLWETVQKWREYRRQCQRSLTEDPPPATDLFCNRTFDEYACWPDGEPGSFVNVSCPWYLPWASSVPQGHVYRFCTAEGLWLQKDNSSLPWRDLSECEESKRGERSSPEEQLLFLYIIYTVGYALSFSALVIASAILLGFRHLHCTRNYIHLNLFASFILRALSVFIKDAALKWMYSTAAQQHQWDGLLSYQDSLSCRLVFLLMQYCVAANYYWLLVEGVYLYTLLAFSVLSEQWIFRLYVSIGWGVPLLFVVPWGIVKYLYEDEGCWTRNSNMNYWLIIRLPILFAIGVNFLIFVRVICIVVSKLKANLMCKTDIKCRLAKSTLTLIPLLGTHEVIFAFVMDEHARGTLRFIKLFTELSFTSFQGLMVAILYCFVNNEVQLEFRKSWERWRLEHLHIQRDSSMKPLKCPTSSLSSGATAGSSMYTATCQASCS
# T4 sequence (P47871 26-477): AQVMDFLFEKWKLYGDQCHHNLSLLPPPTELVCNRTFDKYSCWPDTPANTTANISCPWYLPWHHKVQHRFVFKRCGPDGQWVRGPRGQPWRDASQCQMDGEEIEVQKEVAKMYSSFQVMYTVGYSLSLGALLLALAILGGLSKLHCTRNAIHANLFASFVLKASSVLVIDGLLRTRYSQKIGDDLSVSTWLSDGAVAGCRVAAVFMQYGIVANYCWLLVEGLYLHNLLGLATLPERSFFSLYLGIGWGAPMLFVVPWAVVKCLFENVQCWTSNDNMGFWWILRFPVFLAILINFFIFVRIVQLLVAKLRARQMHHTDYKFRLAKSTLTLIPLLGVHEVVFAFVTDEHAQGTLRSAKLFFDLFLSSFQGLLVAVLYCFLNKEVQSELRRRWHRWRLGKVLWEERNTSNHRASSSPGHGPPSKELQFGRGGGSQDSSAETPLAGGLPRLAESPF
Ratio GLP-1/Glucagon [1],EC50 [1] [nM],EC50 [2] [nM],EC50 [3] [nM],EC50 [4] [nM],SMILES
4.6,0.23,0.18,0.89,0.05,"CCCCCCCCCCCCCCCC(=O)N[C@@H](CCC(=O)NCCCC[C@H](NC(=O)[C@H](CO)NC(=O)[C@H](CCC(=O)O)NC(=O)[C@H](CC(C)C)NC(=O)[C@H](Cc1ccc(O)cc1)NC(=O)[C@H](CCCCN)NC(=O)[C@H](CO)NC(=O)[C@H](Cc1ccc(O)cc1)NC(=O)[C@H](CC(=O)O)NC(=O)[C@H](CO)NC(=O)[C@@H](NC(=O)[C@H](Cc1ccccc1)NC(=O)[C@@H](NC(=O)CNC(=O)[C@H](Cc1c[nH]cn1)NC(=O)C(C)(C)NC(=O)[C@@H](N)Cc1c[nH]cn1)[C@@H](C)O)[C@@H](C)O)C(=O)N[C@@H](C)C(=O)N[C@@H](C)C(=O)N[C@@H](CCC(=O)O)C(=O)N[C@@H](CCC(=O)O)C(=O)N[C@@H](Cc1ccccc1)C(=O)N[C@H](C(=O)N[C@@H](CCC(=O)O)C(=O)N[C@@H](Cc1c[nH]c2ccccc12)C(=O)N[C@@H](CC(C)C)C(=O)N[C@@H](CCC(=O)O)C(=O)N[C@@H](CO)C(=O)N[C@@H](C)C(=O)O)[C@@H](C)CC)C(=O)O [Compound 17, H-H-Aib-HGTFTSDYSKYLES-K(Hexadecanoyl-isoGlu)-AAEEFIEWLESA-OH] (H-H[Aib]HGTFTSDYSKYLESK([γGlu-Palmitoyl])AAEEFIEWLESA-OH)"
3.38,0.27,0.06,0.33,0.08,"CCCCCCCCCCCCCCCC(=O)N[C@@H](CCC(=O)NCCCC[C@H](NC(=O)[C@H](CCC(=O)O)NC(=O)[C@H](CCC(=O)O)NC(=O)[C@H](CC(C)C)NC(=O)[C@H](Cc1ccc(O)cc1)NC(=O)[C@H](CCCCN)NC(=O)[C@H](CO)NC(=O)[C@H](Cc1ccc(O)cc1)NC(=O)[C@H](CC(=O)O)NC(=O)[C@H](CO)NC(=O)[C@@H](NC(=O)[C@H](Cc1ccccc1)NC(=O)[C@@H](NC(=O)CNC(=O)[C@H](Cc1c[nH]cn1)NC(=O)C(C)(C)NC(=O)[C@@H](N)Cc1c[nH]cn1)[C@@H](C)O)[C@@H](C)O)C(=O)N[C@@H](C)C(=O)N[C@@H](C)C(=O)N[C@@H](Cc1c[nH]cn1)C(=O)N[C@@H](CCC(=O)O)C(=O)N[C@@H](Cc1ccccc1)C(=O)N[C@H](C(=O)N[C@@H](CCC(=O)O)C(=O)N[C@@H](Cc1c[nH]c2ccccc12)C(=O)N[C@@H](CC(C)C)C(=O)N[C@@H](CCC(=O)O)C(=O)N[C@@H](CO)C(=O)N[C@@H](C)C(N)=O)C(C)C)C(=O)O [Compound 19, H-H-Aib-HGTFTSDYSKYLEE-K(Hexadecanoyl-isoGlu)-AAHEFVEWLESA-NH2] (H-H[Aib]HGTFTSDYSKYLEEK([γGlu-Palmitoyl])AAHEFVEWLESA-NH2)"
1.94,0.31,0.15,0.41,0.16,"CCCCCCCCCCCCCCCC(=O)N[C@@H](CCC(=O)NCCCC[C@H](NC(=O)[C@H](CCC(=O)O)NC(=O)[C@H](CC(=O)O)NC(=O)[C@H](CC(C)C)NC(=O)[C@H](Cc1ccc(O)cc1)NC(=O)[C@H](CCCCN)NC(=O)[C@H](CO)NC(=O)[C@H](Cc1ccc(O)cc1)NC(=O)[C@H](CC(=O)O)NC(=O)[C@H](CO)NC(=O)[C@@H](NC(=O)[C@H](Cc1ccccc1)NC(=O)[C@@H](NC(=O)CNC(=O)[C@H](CCC(N)=O)NC(=O)[C@@H](CO)NC(=O)[C@@H](N)Cc1c[nH]cn1)[C@@H](C)O)[C@@H](C)O)C(=O)N[C@@H](C)C(=O)N[C@@H](C)C(=O)N[C@@H](CCCCN)C(=O)N[C@@H](CC(=O)O)C(=O)N[C@@H](Cc1ccccc1)C(=O)N[C@H](C(=O)N[C@@H](CCC(=O)O)C(=O)N[C@@H](Cc1c[nH]c2ccccc12)C(=O)N[C@@H](CC(C)C)C(=O)N[C@@H](CCC(=O)O)C(=O)N[C@@H](CO)C(=O)N[C@@H](C)C(N)=O)[C@@H](C)CC)C(=O)O [Compound 25, H-H-DSer-QGTFTSDYSKYLDE-K(Hexadecanoyl-isoGlu)-AAKDFIEWLESA-NH2]"

# — patent US10253081B2, “Glucagon analogues” (Zealand Pharma A/S, priority 2012, dated 2019)
